# System: healthy volunteers
# Assay: First in human study Part 2: MAD, incidence of adverse events and MTD
# Format: in vivo
# Conditions: for AEs leading to discontinuation of: nE / AEs leading to discontinuation of: nS (%) / AEs of Mild severity: nE / AEs of Mild severity: nS (%) / AEs of Moderate: nE / AEs of Moderate: nS (%) / AEs, Subjects with AEs: nE (AE events) / AEs, Subjects with AEs: nS (%) (subjects with at least one AE) / Serious AEs: nE / Serious AEs: nS (%) / Study drug-related AEs: nE / Study drug-related AEs: nS (%) / Study-drug related AEs (last line of Table 2): nE / Study-drug related AEs (last line of Table 2): nS (%): MAD, N = 6
# Description: Part 2 tested multiple ascending doses (MAD) of compound I, administering (i) 1 drop of 0.15%, 1.5%, 2.5%, 4 times daily (every 6 hours) for 7 days or (ii) 1 drop of 2.5%, 8 times daily (every 3 hours) for 7 days (supra-therapeutic dose) as eye drops.
# Safety assessments: Safety assessments consisted of collecting all adverse events (AEs), serious adverse events (SAEs), including systemic and ocular adverse events, along with their severity and relationship to study drug. Systemic safety assessments included regular monitoring of hematology, blood chemistry and urinalysis performed at study center and regular assessments of physical examination, vital signs (systolic and diastolic blood pressure, pulse rate, and body temperature), ECG, pregnancy and assessments of fertility and hand immersion test at 49° C. during MAD part. Ocular safety assessments included early treatment diabetic retinopathy study (ETDRS) visual acuity, intraocular pressure, slit-lamp biomicroscopy, corneal staining and dilated fundus exam.
# Inclusion Criteria: • Written informed consent was obtained before any assessment was performed. • Healthy male and female subjects aged 18 to 50 years (inclusive), and in good health as determined by past medical history, physical examination, vital signs, ECG, and laboratory tests at Screening. • At Screening, and Baseline, vital signs (systolic and diastolic blood pressure (BP) and pulse rate) were assessed in the sitting position after the subject had rested for at least 3 minutes and again after 3 minutes in the standing position. […] BMI=Body weight (kg)/[Height (m)]^2 • Subjects who were able to communicate well with the Investigator, to understand and comply with the requirements of the study. • For Part 3, subjects Baseline levels of eye sensitivity were to be in the range of 50 to 60 mm (inclusive) as measured by the Cochet-Bonnet esthesiometer.
# History of any chronic eye disease other than refractive error, incipient cataract, strabismic amblyopia, or anisometropic amblyopia. Subjects with a history of acute eye disease (such as infection, corneal abrasion or allergy) within the past 6 months from Screening were eligible if the disease was not active. • Any currently active ocular condition that required use of topical eye drops. • Subjects using continuous positive airway pressure or other sleep apnea devices.
compound,measurement,setting,value
"CC(C)c1nc2cc(O)ccc2c(=O)n1-c1ccc(C#N)cc1 [Compound I, 4-(7-hydroxy-2-isopropyl-4-oxo-4H-quinazolin-3-yl)-benzonitrile]",Dose limiting adverse events,"2.5%, 8 times daily for 7 days",No dose limiting adverse events were identified
same,AEs leading to discontinuation of: nE,0.15% 4 times daily for 7 days,0
same,AEs leading to discontinuation of: nS (%),0.15% 4 times daily for 7 days,0 (0.0) nS (%)
same,AEs of Mild severity: nE,0.15% 4 times daily for 7 days,6
same,AEs of Mild severity: nS (%),0.15% 4 times daily for 7 days,3 (50.0) nS (%)
same,AEs of Moderate: nE,0.15% 4 times daily for 7 days,0
same,AEs of Moderate: nS (%),0.15% 4 times daily for 7 days,0 (0.0) nS (%)
same,"AEs, Subjects with AEs: nE (AE events)",0.15% 4 times daily for 7 days,6
same,"AEs, Subjects with AEs: nS (%) (subjects with at least one AE)",0.15% 4 times daily for 7 days,3 (50.0) nS (%)
same,Serious AEs: nE,0.15% 4 times daily for 7 days,"0, 0"
same,Serious AEs: nS (%),0.15% 4 times daily for 7 days,"0, 0 nS (%)"
same,Study drug-related AEs: nE,0.15% 4 times daily for 7 days,5
same,Study drug-related AEs: nS (%),0.15% 4 times daily for 7 days,2 (33.3) nS (%)
same,Study-drug related AEs (last line of Table 2): nE,0.15% 4 times daily for 7 days,0
same,Study-drug related AEs (last line of Table 2): nS (%),0.15% 4 times daily for 7 days,0 (0.0) nS (%)
same,AEs leading to discontinuation of: nE,1.5% 4 times daily for 7 days,0
same,AEs leading to discontinuation of: nS (%),1.5% 4 times daily for 7 days,0 (0.0) nS (%)
same,AEs of Mild severity: nE,1.5% 4 times daily for 7 days,11
same,AEs of Mild severity: nS (%),1.5% 4 times daily for 7 days,5 (83.3) nS (%)
same,AEs of Moderate: nE,1.5% 4 times daily for 7 days,1
same,AEs of Moderate: nS (%),1.5% 4 times daily for 7 days,1 (16.7) nS (%)
same,"AEs, Subjects with AEs: nE (AE events)",1.5% 4 times daily for 7 days,12
same,"AEs, Subjects with AEs: nS (%) (subjects with at least one AE)",1.5% 4 times daily for 7 days,5 (83.3) nS (%)
same,Serious AEs: nE,1.5% 4 times daily for 7 days,0
same,Serious AEs: nS (%),1.5% 4 times daily for 7 days,0 (0.0) nS (%)
same,Study drug-related AEs: nE,1.5% 4 times daily for 7 days,9
same,Study drug-related AEs: nS (%),1.5% 4 times daily for 7 days,3 (50.0) nS (%)
same,Study-drug related AEs (last line of Table 2): nE,1.5% 4 times daily for 7 days,0
same,Study-drug related AEs (last line of Table 2): nS (%),1.5% 4 times daily for 7 days,0 (0.0) nS (%)
same,AEs leading to discontinuation of: nE,2.5% 4 times daily for 7 days,"1, 1"
same,AEs leading to discontinuation of: nS (%),2.5% 4 times daily for 7 days,"1, 1 nS (%)"
same,AEs of Mild severity: nE,2.5% 4 times daily for 7 days,3
same,AEs of Mild severity: nS (%),2.5% 4 times daily for 7 days,2 (33.3) nS (%)
same,AEs of Moderate: nE,2.5% 4 times daily for 7 days,1
same,AEs of Moderate: nS (%),2.5% 4 times daily for 7 days,1 (16.7) nS (%)
same,"AEs, Subjects with AEs: nE (AE events)",2.5% 4 times daily for 7 days,4
same,"AEs, Subjects with AEs: nS (%) (subjects with at least one AE)",2.5% 4 times daily for 7 days,2 (33.3) nS (%)
same,Serious AEs: nE,2.5% 4 times daily for 7 days,0
same,Serious AEs: nS (%),2.5% 4 times daily for 7 days,0 (0.0) nS (%)
same,Study drug-related AEs: nE,2.5% 4 times daily for 7 days,4
same,Study drug-related AEs: nS (%),2.5% 4 times daily for 7 days,2 (33.3) nS (%)
same,Study-drug related AEs (last line of Table 2): nE,2.5% 4 times daily for 7 days,1
same,Study-drug related AEs (last line of Table 2): nS (%),2.5% 4 times daily for 7 days,1 (16.7) nS (%)
same,AEs leading to discontinuation of: nE,2.5% 8 times daily for 7 days,0
same,AEs leading to discontinuation of: nS (%),2.5% 8 times daily for 7 days,0 (0.0) nS (%)
same,AEs of Mild severity: nE,2.5% 8 times daily for 7 days,3
same,AEs of Mild severity: nS (%),2.5% 8 times daily for 7 days,2 (33.3) nS (%)
same,AEs of Moderate: nE,2.5% 8 times daily for 7 days,0
same,AEs of Moderate: nS (%),2.5% 8 times daily for 7 days,0 (0.0) nS (%)
same,"AEs, Subjects with AEs: nE (AE events)",2.5% 8 times daily for 7 days,3
same,"AEs, Subjects with AEs: nS (%) (subjects with at least one AE)",2.5% 8 times daily for 7 days,2 (33.3) nS (%)
same,Serious AEs: nE,2.5% 8 times daily for 7 days,0
same,Serious AEs: nS (%),2.5% 8 times daily for 7 days,0 (0.0) nS (%)
same,Study drug-related AEs: nE,2.5% 8 times daily for 7 days,2
same,Study drug-related AEs: nS (%),2.5% 8 times daily for 7 days,1 (16.7) nS (%)
same,Study-drug related AEs (last line of Table 2): nE,2.5% 8 times daily for 7 days,0
same,Study-drug related AEs (last line of Table 2): nS (%),2.5% 8 times daily for 7 days,0 (0.0) nS (%)
same,Severity of adverse events of suspected causality to compound I,"Parts 1, 2 and 3, exception in the 2.5% 4 times daily cohort","mild severity, except for moderate severity eye irritation"
same,Most frequent ocular adverse events,"compound I treated, compared with placebo","corneal staining, hyperemia and mild anterior chamber inflammation, in levels similar to placebo"
same,Maximum Tolerated Dose (MTD),"maximum feasible concentration, 8 times daily for 7 days, eye drops",2.5%

# Reference: patent US11234982B2, “Methods for treating ocular surface pain” (NOVARTIS AG, priority 2019, dated 2022)
